Values quoted from earlier work, collected in US11823773B2, “Nant cancer vaccine strategies” (Nant Holdings IP, LLC, priority 2018, dated 2023).

## rituximab: anti-CD20 antibody
CD20-positive NHL; rituximab refractory (RR) patients, reasonable estimate, no trial data reported
  response rate to single agent retreatment: < 5%
CD20-positive NHL; rituximab sensitive (RS) patients
  patients responding to retreatment: approximately 40%

## O=C(c1ccc(F)c(F)c1Nc1ccc(I)cc1F)N1CC(O)([C@@H]2CCCCN2)C1 [cobimetinib]
Advanced melanoma; in combination with vemurafenib
  PFS over vemurafenib treatment alone: significant increase in PFS

## CC(C)(C)c1nc(-c2cccc(NS(=O)(=O)c3c(F)cccc3F)c2F)c(-c2ccnc(N)n2)s1 [Dabrafenib]
Advanced melanoma; human, in vivo
  PFS compared to dacarbazine: improvement in PFS
